Tests used:
UGT = assay: Human hepatocyte UGT induction study, conversion of MPA to MPAG; format: cell-based; settings: for formation of MPAG, % of NC (Mean): 96 h treatment
Protocol: Cryopreserved human hepatocytes were recovered in a pre-warmed incubation medium, diluted to a viable cell density (∼0.7 × 10^6 cells/mL) using a plating medium, followed by the addition of 100 μL hepatocytes into each well of a collagen I-coated 96-well plate. The cell monolayer was formed after an overnight incubation period at 37°C under 5%CO2. The plating medium was then replaced with an incubation medium for further culture. On the second day, an incubation medium containing different concentrations of either compound, the inducer omeprazole (final concentration of 50 μM), or vehicle (0.1% [v/v] dimethyl sulfoxide [DMSO]). […] At the end of the incubation period, the medium was replaced with a substrate for UGT and MPA. Following a further incubation of 15 or 30 min at 37°C under 5% CO2, 100 μL of the reaction medium was transferred to 400 μL of ice-cold methanol containing internal standard (IS) to terminate the reaction. Finally, the supernatant was collected after centrifugation at 4,000 rpm for 10 min and analyzed for glucuronide formation using liquid chromatography-mass spectrometry (LC-MS).
The formation of glucuronide metabolites, as determined with LC-MS, was used to calculate the formation rate linked to enzyme activity according to Equation 1. Formation rate pmol/10^6 cells/min=amount of glucuronide metabolites formation pmol/number of cells 10^6 cells×incubation time min (1)
The percentage of enzyme activity relative to the NC (%) was determined using Equation 2. Relative enzyme activity % of NC=formation rate in the compound−treated group/that in NC×100 (2)

OAT3 [1] = target: T1, OAT3 (Homo sapiens, UniProt Q8TCC7); assay: Transporter substrate study using HEK293-OAT3 cells
T1 sequence (Q8TCC7 1-542): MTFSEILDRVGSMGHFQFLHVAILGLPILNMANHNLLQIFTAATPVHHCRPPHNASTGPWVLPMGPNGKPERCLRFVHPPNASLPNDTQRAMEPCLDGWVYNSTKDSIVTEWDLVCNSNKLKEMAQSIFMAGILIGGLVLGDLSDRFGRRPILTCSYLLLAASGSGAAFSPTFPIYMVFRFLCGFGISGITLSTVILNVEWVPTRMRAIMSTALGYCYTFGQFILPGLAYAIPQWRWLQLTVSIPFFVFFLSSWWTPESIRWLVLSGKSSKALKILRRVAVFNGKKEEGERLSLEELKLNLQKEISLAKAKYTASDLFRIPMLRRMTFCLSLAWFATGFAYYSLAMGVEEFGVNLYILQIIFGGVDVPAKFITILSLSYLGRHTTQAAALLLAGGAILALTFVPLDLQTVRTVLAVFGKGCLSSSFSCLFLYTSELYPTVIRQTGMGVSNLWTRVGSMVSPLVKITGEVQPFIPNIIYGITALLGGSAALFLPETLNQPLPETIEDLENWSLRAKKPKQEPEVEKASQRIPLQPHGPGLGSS

OATP1B1 = target: T2, OATP1B1 (Homo sapiens, UniProt Q9Y6L6); assay: Inhibitory effect of seven drugs on OATP1B1-mediated E217βG uptake; format: cell-based; settings: 50 μM or 50 μg/mL; N = 2
T2 construct: host or cells: HEK293
T2 sequence (Q9Y6L6 1-691): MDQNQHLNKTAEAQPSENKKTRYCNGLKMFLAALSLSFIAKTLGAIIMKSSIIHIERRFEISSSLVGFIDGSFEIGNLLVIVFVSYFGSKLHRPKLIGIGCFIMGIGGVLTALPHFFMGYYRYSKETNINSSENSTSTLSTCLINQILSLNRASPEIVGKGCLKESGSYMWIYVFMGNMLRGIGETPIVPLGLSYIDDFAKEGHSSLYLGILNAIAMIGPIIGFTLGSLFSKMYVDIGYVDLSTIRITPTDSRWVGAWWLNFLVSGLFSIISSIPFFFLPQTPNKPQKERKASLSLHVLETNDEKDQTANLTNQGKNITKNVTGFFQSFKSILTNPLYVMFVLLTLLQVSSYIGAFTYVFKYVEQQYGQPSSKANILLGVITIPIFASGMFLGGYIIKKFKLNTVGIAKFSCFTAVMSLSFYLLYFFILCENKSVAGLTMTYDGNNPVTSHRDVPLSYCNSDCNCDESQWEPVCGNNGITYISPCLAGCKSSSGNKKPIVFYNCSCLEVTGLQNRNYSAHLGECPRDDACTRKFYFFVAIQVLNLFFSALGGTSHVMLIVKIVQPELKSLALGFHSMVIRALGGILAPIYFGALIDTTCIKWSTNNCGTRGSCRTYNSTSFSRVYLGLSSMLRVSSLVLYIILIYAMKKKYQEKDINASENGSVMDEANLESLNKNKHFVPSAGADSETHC
Protocol: (§1) Note: the peak area of probe substrate transported by MRP2, OAT3, OATP1B1 or OATP1B3 was determined by LC-MS method. Then, the relative uptake rate of probe substrate in the presence of seven drugs was calculated by using equation 7 or 11. When the relative uptake rate was decreased by more than 50%, indicating the potential inhibitory of drug on the transporter.

OATP1B3 = target: T3, OATP1B3 (Homo sapiens, UniProt Q9NPD5); assay: Inhibitory effect of seven drugs on OATP1B3-mediated E217βG uptake; format: cell-based; settings: 50 μM or 50 μg/mL; N = 2
T3 construct: host or cells: HEK293
T3 sequence (Q9NPD5 1-702): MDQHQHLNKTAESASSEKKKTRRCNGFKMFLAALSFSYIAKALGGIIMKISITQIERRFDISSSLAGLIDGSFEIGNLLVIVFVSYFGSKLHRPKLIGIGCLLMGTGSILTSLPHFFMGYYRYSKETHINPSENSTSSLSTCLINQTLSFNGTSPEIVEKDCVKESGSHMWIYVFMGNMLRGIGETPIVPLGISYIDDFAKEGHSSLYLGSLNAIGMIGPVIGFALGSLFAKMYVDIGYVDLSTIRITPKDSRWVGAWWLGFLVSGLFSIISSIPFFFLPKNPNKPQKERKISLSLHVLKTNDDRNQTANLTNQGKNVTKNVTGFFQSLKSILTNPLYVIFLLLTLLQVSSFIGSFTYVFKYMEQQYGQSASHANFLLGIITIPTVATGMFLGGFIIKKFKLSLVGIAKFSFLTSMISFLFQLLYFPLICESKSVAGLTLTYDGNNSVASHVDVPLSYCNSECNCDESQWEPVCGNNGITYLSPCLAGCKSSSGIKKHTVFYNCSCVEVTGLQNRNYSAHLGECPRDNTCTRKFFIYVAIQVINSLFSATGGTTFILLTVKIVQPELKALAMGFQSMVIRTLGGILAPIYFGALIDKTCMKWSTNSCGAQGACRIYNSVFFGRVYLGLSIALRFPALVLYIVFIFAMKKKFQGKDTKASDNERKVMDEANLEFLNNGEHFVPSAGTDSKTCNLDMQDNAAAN
Protocol: as §1

OAT3 [2] = target: T1, OAT3; assay: Inhibitory effect of seven drugs on OAT3-mediated ES uptake; format: cell-based; set-up: host or cells: HEK293; settings: 50 μM or 50 μg/mL; N = 2
Protocol: as §1

MRP2 = MRP2 (Homo sapiens, UniProt Q92887); assay: Inhibitory effect of seven drugs on MRP2-mediated E217βG uptake (vesicles); format: biochemical; set-up: purchased GenoMembrane (Tokyo, Japan) Product No. 0001; settings: 50 μM or 50 μg/mL; N = 2
Chain of MRP2 (Q92887 whole entry): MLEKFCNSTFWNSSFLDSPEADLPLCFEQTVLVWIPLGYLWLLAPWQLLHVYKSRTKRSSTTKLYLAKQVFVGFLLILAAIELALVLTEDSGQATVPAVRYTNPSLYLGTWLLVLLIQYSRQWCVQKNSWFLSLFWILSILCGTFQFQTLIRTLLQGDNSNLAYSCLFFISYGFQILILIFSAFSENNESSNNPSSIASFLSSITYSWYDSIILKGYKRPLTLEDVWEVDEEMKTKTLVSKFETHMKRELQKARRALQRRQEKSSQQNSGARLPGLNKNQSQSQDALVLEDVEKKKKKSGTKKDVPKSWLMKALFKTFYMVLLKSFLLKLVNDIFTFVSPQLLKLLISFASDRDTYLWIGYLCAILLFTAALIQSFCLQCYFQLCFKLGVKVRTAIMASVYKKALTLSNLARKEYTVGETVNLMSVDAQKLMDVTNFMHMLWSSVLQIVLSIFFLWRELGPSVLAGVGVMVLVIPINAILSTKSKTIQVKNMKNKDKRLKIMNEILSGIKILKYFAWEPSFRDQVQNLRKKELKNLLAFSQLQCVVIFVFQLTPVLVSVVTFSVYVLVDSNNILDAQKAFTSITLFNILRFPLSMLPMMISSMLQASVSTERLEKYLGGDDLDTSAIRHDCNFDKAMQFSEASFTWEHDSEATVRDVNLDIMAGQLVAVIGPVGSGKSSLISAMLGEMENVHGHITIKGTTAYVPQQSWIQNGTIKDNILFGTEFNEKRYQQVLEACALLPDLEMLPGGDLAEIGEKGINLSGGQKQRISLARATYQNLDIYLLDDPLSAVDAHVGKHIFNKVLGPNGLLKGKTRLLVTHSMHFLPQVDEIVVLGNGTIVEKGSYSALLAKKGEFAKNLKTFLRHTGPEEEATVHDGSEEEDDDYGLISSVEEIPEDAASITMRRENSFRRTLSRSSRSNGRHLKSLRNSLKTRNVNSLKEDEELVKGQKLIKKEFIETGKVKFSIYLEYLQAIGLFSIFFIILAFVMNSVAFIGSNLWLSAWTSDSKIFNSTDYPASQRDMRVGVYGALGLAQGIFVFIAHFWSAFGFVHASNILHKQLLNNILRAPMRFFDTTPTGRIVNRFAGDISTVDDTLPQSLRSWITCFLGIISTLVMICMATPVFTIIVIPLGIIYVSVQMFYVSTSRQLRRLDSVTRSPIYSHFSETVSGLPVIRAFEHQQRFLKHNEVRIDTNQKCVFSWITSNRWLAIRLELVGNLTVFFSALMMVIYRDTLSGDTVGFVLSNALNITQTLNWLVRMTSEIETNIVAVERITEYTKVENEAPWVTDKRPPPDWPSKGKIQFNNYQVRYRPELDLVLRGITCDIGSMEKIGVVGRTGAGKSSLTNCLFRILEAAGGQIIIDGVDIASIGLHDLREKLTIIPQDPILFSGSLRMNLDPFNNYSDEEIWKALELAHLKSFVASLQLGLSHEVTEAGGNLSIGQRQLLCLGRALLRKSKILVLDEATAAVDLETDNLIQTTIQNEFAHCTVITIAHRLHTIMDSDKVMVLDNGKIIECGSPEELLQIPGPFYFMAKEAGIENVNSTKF
Protocol: Briefly, 10 μL of vesicle membranes and 5 μL of Reagent G were mixed and pre-incubated with 10 μL of the compounds or Buffer A2 (used as no compound-treatment control [NC]) at 37°C for 5 min. […] The two mixtures were mixed before the incubation and then incubated for an additional 5 min. […]
Regarding the inhibition assay, the methods used to calculate the transported activity and UR were similar to those used for the substrate assay. However, please refer to the SLC inhibition assay for the equations for calculating the UR percentages relative to the NC and IC50 values of compounds on MRP2 activity and MRP2-mediated MPAG transport.
as §1

[3] = cited from earlier work

SMILES	Relative net uptake rate (% of NC), Mean, OATP1B1-mediated E217βG uptake (OATP1B1)	Relative net uptake rate (% of NC), Mean, OATP1B3-mediated E217βG uptake (OATP1B3)	Relative net uptake rate (% of NC), Mean, OAT3-mediated ES uptake (OAT3 [2])	Relative net uptake rate (% of NC), Mean, MRP2-mediated E217βG uptake (MRP2)	also measured
C[C@]12C=CC(=O)C=C1CC[C@@H]1[C@@H]2[C@@H](O)C[C@@]2(C)[C@H]1CC[C@]2(O)C(=O)CO [prednisolone]					formation of MPAG, % of NC (Mean) (UGT; 0.5 μM): 101 % of NC; formation of MPAG, % of NC (Mean) (UGT; 1 μM): 114 % of NC; formation of MPAG, % of NC (Mean) (UGT; 5 μM): 106 % of NC; formation of MPAG, % of NC (Mean) (UGT; 10 μM): 101 % of NC; formation of MPAG, % of NC (Mean) (UGT; 50 μM): 126 % of NC; formation of MPAG, % of NC (Mean) (UGT; 100 μM): 129 % of NC; change in MPAG formation from MPA (in words) (UGT; 96 h incubation of human hepatocytes): slight increase
C[C@]12CC[C@@H]3c4ccc(OS(=O)(=O)O)cc4CC[C@H]3[C@@H]1CCC2=O [ES, estrone-3-sulfate]					uptake ratio (UR) of probe substrate mediated by OAT3 (OAT3 [1]; after probenecid treatment): 3.26; uptake ratio (UR) of probe substrate mediated by OAT3 (OAT3 [1]; without inhibitor): 7.37
C[C@@H](O)[C@H]1C(=O)N2C(C(=O)O)=C(S[C@@H]3CN[C@H](C(=O)N(C)C)C3)[C@H](C)[C@H]12 [Meropenem, meropenem]	95.9 % of NC	69.9 % of NC	26.6 % of NC	137 % of NC	
COc1ccnc(C[S+]([O-])c2nc3ccc(OC(F)F)cc3[nH]2)c1OC (centres unmarked) [Pantoprazole, pantoprazole]	115 % of NC	67.7 % of NC	87.2 % of NC	134 % of NC	
CCN1CCN(C(=O)N[C@@H](C(=O)N[C@@H]2C(=O)N3C(C(=O)O)=C(CSc4nnnn4C)CS[C@H]23)c2ccc(O)cc2)C(=O)C1=O [Cefoperzone, cefoperazone]	168 % of NC	67.5 % of NC		104 % of NC	
CCCCC[C@H](O)/C=C/[C@H]1[C@H](O)CC(=O)[C@@H]1CCCCCCC(=O)O [Alprostadil, alprostadil]	33.6 % of NC	59.6 % of NC	52.6 % of NC	137 % of NC	
COc1c(C)c2c(c(O)c1C/C=C(\C)CCC(=O)O)C(=O)OC2 [MPA, mycophenolic acid]					exposure lower in the early phase after transplantation than in the stable period ([3]; similar dose of MMF, ref Shaw et al., 2003): 30%–50%
O=C(c1cc(Cc2n[nH]c(=O)c3ccccc23)ccc1F)N1CCN(C(=O)C2CC2)CC1 [Olaparib, olaparib]	99.3 % of NC	72.4 % of NC	70.2 % of NC	136 % of NC	
COc1c(C)c2c(c(O)c1C/C=C(\C)CCC(=O)OCCN1CCOCC1)C(=O)OC2 [MMF, mycophenolate mofetil]					fraction of the absorbed drug eliminated in the urine ([3]; ref van Schaik et al., 2009): approximately 87%
CCCN(CCC)S(=O)(=O)c1ccc(C(=O)O)cc1 [probenecid]					reduction of OAT3-mediated MPAG uptake (OAT3 [1]; 10 μM MPAG): 90.8%; reduction of OAT3-mediated ES uptake (OAT3 [1]; probe substrate ES): 69.4%

Reference: publication PMC11381307 (Frontiers in Pharmacology, 2024)
